Experimental data: patent publication US20250090699A1, “FAP TARGETING CYCLIC PEPTIDES AND CONJUGATES THEREOF” (Novartis AG, priority 2023, published 2025)
Starred links: 1 amine or outer side, 2 acyl side, 3 side chain; linkers in the order of their positions; H or OH if unused. Non-standard residues stand in square brackets, D forms with d. Residues, ends and D or L forms follow the SMILES beside them. *: point of attachment. F(4amPEG2NH-NOTA-Ga) = gallium complex of (S)-2,2'-(7-(1-(4-(2-amino-2-carboxyethyl)phenyl)-3,12-dioxo-5,8-dioxa-2,11-diazatridecan-13-yl)-1,4,7-triazonane-1,4-diyl)diacetic acid (Phe with 4-aminomethyl-PEG2-NOTA-Ga), O=C([O-])CN1CCN(CC(=O)[O-])CCN(CC(=O)NCCOCCOCC(=O)NCc2ccc(C[C@H](N[*:1])C(=O)[*:2])cc2)CC1.[Ga+3]; COpipzaa = 4-(carboxymethyl)piperazine-1-carbonyl, O=C(O)CN1CCN(C(=O)*)CC1; hS(Pr) = O-propyl-L-homoserine, CCCOCC[C@H](N[*:1])C(=O)[*:2]; NMeF = CN[C@@H](Cc1ccccc1)C(=O)O; Ahp(2) = CCCCC[C@H](N)C(=O)O; dPip = O=C(O)[C@H]1CCCCN1; Sar = CNCC(=O)O

Legend:
human FAP = molecular target: T1, human FAP (Homo sapiens, UniProt Q12884); test: Enzymatic FAP competition assay (Z-Gly-Pro-AMC fluorescence), human FAP; type: biochemical; conditions: read-out: h. FAP, Enz., IC50
T1 construct: the biotinylated His, Avi tag, human FAP (26-760, FAP-H82Q6); His; Avi tag (biotinylated); purchased AcroBiosystems FAP-H82Q6
T1 sequence (Q12884 26-760): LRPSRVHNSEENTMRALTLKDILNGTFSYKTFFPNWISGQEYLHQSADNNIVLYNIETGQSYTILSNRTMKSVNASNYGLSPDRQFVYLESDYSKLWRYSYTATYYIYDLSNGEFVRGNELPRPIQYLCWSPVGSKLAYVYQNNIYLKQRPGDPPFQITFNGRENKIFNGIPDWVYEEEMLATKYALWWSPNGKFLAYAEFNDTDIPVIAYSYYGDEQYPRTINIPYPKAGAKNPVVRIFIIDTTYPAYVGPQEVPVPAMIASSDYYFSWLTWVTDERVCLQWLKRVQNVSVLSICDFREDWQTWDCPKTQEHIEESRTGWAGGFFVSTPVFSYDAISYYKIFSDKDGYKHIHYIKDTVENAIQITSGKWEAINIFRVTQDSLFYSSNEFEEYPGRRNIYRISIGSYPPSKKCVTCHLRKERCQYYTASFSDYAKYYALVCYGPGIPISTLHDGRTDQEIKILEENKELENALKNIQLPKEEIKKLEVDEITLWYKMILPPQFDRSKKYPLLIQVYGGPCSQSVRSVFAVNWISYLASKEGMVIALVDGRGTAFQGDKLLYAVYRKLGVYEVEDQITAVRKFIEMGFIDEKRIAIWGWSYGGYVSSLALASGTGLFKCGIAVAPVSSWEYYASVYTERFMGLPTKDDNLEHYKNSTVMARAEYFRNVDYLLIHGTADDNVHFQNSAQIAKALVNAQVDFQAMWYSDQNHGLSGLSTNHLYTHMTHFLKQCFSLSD
Method: (§1) Peptide potencies (IC50) to inhibit the FAP enzymatic activity were determined using a fluorescence-based assay towards the biotinylated His, Avi tag, human FAP (26-760, FAP-H82Q6) and the biotinylated His, Avi tag, mouse FAP (26-761, FAP-M82Q5). Standard assay conditions consisted of 20 μL total volume in white 384-well plates (Greiner, Ref. 784075), in 50 mM phosphate buffer pH 7.5 containing 150 mM NaCl, 0.05% Tween20 and 1% final DMSO. Tested peptides at 14 different concentrations up to 1 μM were added to 0.01 nM human or mouse FAP. The peptides were incubated for 24 hours together with the protein before adding the substrate 50 μM Z-Gly-Pro-AMC (I-1145 from Bachem). Samples were then incubated at 22-24° C. for 4 h before reading the fluorescence at excitation wavelength of 380 nm and emission wavelength of 460 nm using the Tecan Infinite® M1000 PRO. The high control (100% activity) was not containing any peptide, and an internal potent peptide was added at 10 μM concentration for the low control (100% inhibition). IC50 values were calculated by curve fitting using an in-house developed software (Novartis Helios software application) using the method described by Fomenko et al., 2006 (regression algorithms for nonlinear dose-response curve fitting). Following normalization of activity values for the wells to % inhibition (% inhibition=[(high control-sample)/(high control-low control)]x 100). IC50 fitting was carried out from the duplicated points.

mouse FAP [1] = molecular target: T2, mouse FAP (Mus musculus, UniProt P97321); test: Surface plasmon resonance (SPR) for peptide affinity, mouse FAP; type: binding
T2 construct: biotinylated His, Avi tag, mouse FAP (26-761, FAP-M82Q5); His; Avi tag (biotinylated); purchased AcroBiosystems FAP-M82Q5
T2 sequence (P97321 26-761): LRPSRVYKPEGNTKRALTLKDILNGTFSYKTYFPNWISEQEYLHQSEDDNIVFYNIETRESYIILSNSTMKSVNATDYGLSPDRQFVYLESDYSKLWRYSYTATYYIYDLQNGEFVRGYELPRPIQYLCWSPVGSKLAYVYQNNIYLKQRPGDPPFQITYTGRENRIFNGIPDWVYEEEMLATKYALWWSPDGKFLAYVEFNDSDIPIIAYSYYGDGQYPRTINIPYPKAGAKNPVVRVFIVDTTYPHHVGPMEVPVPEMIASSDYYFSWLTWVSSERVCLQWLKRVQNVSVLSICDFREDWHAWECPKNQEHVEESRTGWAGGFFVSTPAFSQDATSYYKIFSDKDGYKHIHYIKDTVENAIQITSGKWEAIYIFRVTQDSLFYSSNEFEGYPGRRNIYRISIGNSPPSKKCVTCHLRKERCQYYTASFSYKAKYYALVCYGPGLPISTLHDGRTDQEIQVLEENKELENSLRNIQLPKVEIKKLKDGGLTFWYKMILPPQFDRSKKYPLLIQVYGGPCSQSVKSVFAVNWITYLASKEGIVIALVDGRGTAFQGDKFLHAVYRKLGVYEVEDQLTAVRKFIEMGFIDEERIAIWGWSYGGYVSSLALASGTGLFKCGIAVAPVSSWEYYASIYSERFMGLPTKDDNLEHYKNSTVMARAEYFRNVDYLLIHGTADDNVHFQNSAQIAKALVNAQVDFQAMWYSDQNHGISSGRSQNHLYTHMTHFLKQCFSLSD
Method: Peptide affinities (KD) were determined by SPR using a Biacore™ 8K device (Cytiva) towards the following proteins: biotinylated His, Avi tag, human FAP (26-760, FAP-H82Q6), biotinylated His, Avi tag, mouse FAP (26-761, FAP-M82Q5), His tag, human DPP4 (34-766, DP4-H82E3), all purchased from AcroBiosystems and His tag, mouse DPP4 (29-760, 954-SE) from R&D Systems. The FAP proteins and their homologous were diluted to a concentration of 2 μg/mL into acetate buffer pH 5.5, then immobilized onto a CM5 sensorchip (Cytiva, BR-1005-30) to reach a response around 2000 R U. The running buffer HBS-EP+pH 7.6 (20× from Teknova CAT. No: H8022) contained 10 mM HEPES pH 7.6, 150 mM NaCl, 3 mM EDTA, 0.05% Tween20 and 2% DMSO. Experiments were carried out at 25° C. using a flow rate of 30 μL/min. Compounds were tested in single cycle kinetic mode at 8 different concentrations. Curve fitting was performed using the Biacore™ 8K evaluation software. The sensorgrams were fitted by applying a 1:1 binding model to calculate kinetic rate constants and equilibrium dissociation constants (KD).
For this assay, the setup had the same conditions (flow rate, running buffer, peptide dilution) as described above for the CM5 method. The oligo CAP reagent obtained in the CAPture Kit (Ref. 28920234) was 1/5 diluted into running buffer and used with a contact time of 300 s at a flow rate of 2 μL/min. The human and mouse FAP constructs described above were used (from AcroBiosystems or produced in house). The FAP proteins were diluted to a concentration of 2 μg/mL into acetate pH 5.5, 0.05% Tween20 and used with a contact time of 600 s at a flow rate of 10 μL/min. The peptides were tested with an association time of 280 s followed by a dissociation time of 3000 s at a flow rate of 30 μL/min. The regeneration was done using the regeneration solution (8 M guanidine-HCl, 1 M NaOH) as obtained with a contact time of 270 s at a flow rate of 10 μL/min. […] The compounds marked with an asterisk were tested against human and mouse DDP4.

mouse FAP [2] = molecular target: T2, mouse FAP; test: Enzymatic FAP competition assay (Z-Gly-Pro-AMC fluorescence), mouse FAP; type: biochemical; conditions: read-out: m. FAP, Enz., IC50
Method: as §1

Compound | IC50 (human FAP) [nM] | Kd (mouse FAP [1]) [nM] | IC50 (mouse FAP [2]) [nM]
CCCCCC[C@@H]1NC(=O)[C@H](Cc2ccc(CNC(=O)COCCOCCNC(=S)Nc3ccc(CC4CN(CC(=O)O)CCN(CC(=O)O)CCN(CC(=O)O)CCN4CC(=O)O)cc3)cc2)NC(=O)[C@H](Cc2ccccc2)N(C)C(=O)CNC(=O)CNC(=O)[C@H]2CCCN2C(=O)[C@H](CC(=O)O)NC(=O)[C@H](CCCCNC(=O)N2CCN(CC(=O)O)CC2)NC(=O)CNC(=O)[C@H](Cc2c[nH]c3ccccc23)NC1=O (stereo partly drawn) [Example B37, Gly-Gly-NMePhe-F(4amPEG2NH-p-SCN-DOTA-Aoc-Trp-Gly-K(COpipzaa)-Asp-D-Pro] | 0.017 | < 0.022 | 0.042
Gly-Gly-NMe3PyA-F(4amPEG2NHDOTA-Lu)-hS(Pr)-W7N-Gly-K(COpipzaa)-Asp-D-Pro [Example C3] | 0.007 | < 0.041 | 0.019
CCCCC[C@@H]1NC(=O)[C@H](Cc2ccc(O)cc2)NC(=O)[C@H](Cc2ccccc2)N(C)C(=O)CNC(=O)CNC(=O)[C@H]2CCCCN2C(=O)[C@H](CC(=O)O)NC(=O)[C@H](Cc2ccc(O)cc2)NC(=O)CNC(=O)[C@H](Cc2c[nH]c3ccccc23)NC1=O [Example A66, Gly-Gly-NMePhe-Tyr-Ahp-Trp-Gly-Tyr-Asp-Pi(2R-COOH)] (cyclo([Ahp(2)]WGYD[dPip]GG[NMeF]Y)) | 0.27 | 0.46 | 1.2

Further compounds by falling IC50 (human FAP), results first:

IC50 (human FAP) [nM] | Kd (mouse FAP [1]) [nM] | IC50 (mouse FAP [2]) [nM] | Compound
0.028 | 0.081 | 0.101 | CCCCC[C@@H]1NC(=O)[C@H](Cc2ccc(O)cc2)NC(=O)[C@H](Cc2ccccc2)N(C)C(=O)CNC(=O)CN(C)C(=O)[C@H]2CCCN2C(=O)[C@H](CC(=O)O)NC(=O)[C@H](Cc2ccc(O)cc2)NC(=O)CNC(=O)[C@H](Cc2c[nH]c3ccccc23)NC1=O [Example A73, 2-((9S,12S,15S,18S,24S,27S,32aR)-18-((1H-indol-3-yl)methyl)-9-benzyl-12,24-bis(4-hydroxybenzyl)-2,8-dimethyl-1,4,7,10,13,16,19,22,25,28-decaoxo-15-pentyldotriacontahydropyrrolo[1,2-a][1,4,7,10,13,16,19,22,25,28]decaazacyclotriacontin-27-yl)acetic acid] (cyclo([Ahp(2)]WGYD[dP][Sar]G[NMeF]Y))
0.013 | < 0.043 | 0.031 | Gly-Gly-NMePhe-F(4amPEG2NH-NOTA-Ga)-hS(Pr)-Trp-Gly-K(COpipzaa)-Asp-D-Pro (cyclo(GG[NMeF][F(4amPEG2NH-NOTA-Ga)][hS(Pr)]WGK(COpipzaa)D[dP]); also: Ga complex) [Example C41]
